This assay relates to P388 leukemia ip, CD2F1 mice, survival T/C. In words: NCI In Vivo Anticancer Drug Screen. Data for tumor model P388 Leukemia (intraperitoneal) in CD2F1 (CDF1) mice. Conditions: endpoint: median survival time, higher = longer survival. The procedure, abridged:
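Mice carrying the transplanted tumor received test compound or vehicle. Survival was recorded in each group, and the value is the treated-group measurement divided by that of the vehicle-treated control group.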

[1] abbreviates: dose: 50.0 mg/kg/injection, schedule: Q01DX009 (ip), vehicle: saline.
The mark [2] stands for this setting: dose: 50.0 mg/kg/injection, schedule: Q01DX005 (ip), vehicle: saline with Tween-80.
Setting [3] is: dose: 100.0 mg/kg/injection, schedule: Q01DX005 (ip), vehicle: saline with Tween-80.

These results are taken from PubChem BioAssay AID330 (DTP/NCI, 2004).

Toxic doses and inconclusive results are not listed.

On to `CCCCCCOC(=O)C(N)Cc1ccc(N(CCCl)CCCl)cc1` (configuration not stated), for which the T/C by setting is: (dose: 1.28 mg/kg/injection, schedule: Q01DX009 (ip), vehicle: saline) 245 % of control; (dose: 2.55 mg/kg/injection, schedule: Q01DX009 (ip), vehicle: saline) 322 % of control; (dose: 3.2 mg/kg/injection, schedule: Q03HX008 (ip), vehicle: saline) 165 % of control; (dose: 5.1 mg/kg/injection, schedule: Q01DX009 (ip), vehicle: saline) 118 % of control; (dose: 6.4 mg/kg/injection, schedule: Q03HX008 (ip), vehicle: saline) 180 % of control; (dose: 10.2 mg/kg/injection, schedule: Q01DX009 (ip), vehicle: saline) 86 % of control. Further, the T/C was 295 % of control (dose: 12.8 mg/kg/injection, schedule: Q03HX008 (ip), vehicle: saline); 600 % of control (dose: 25.5 mg/kg/injection, schedule: Q03HX008 (ip), vehicle: saline); 600 % of control (dose: 51.0 mg/kg/injection, schedule: Q03HX008 (ip), vehicle: saline).

For `OCCCOc1ccc(OCCCO)cc1`, the T/C runs as follows: (dose: 60.0 mg/kg/injection, schedule: Q01DX005 (ip), vehicle: Klucel (hydroxypropylcellulose) (HPC)) 100 % of control; (dose: 120.0 mg/kg/injection, schedule: Q01DX005 (ip), vehicle: Klucel (hydroxypropylcellulose) (HPC)) 99 % of control; (dose: 240.0 mg/kg/injection, schedule: Q01DX005 (ip), vehicle: Klucel (hydroxypropylcellulose) (HPC)) 103 % of control.

As for `C/C(=N\N1CN(C(C)C(=O)O)P(Nc2ncn[nH]2)N=C1N)c1cccs1` (configuration not stated), the T/C (dose: 7.5 mg/kg/injection, schedule: Q01DX005 (ip), vehicle: saline with Tween-80) is 96 % of control; the T/C (dose: 15.0 mg/kg/injection, schedule: Q01DX005 (ip), vehicle: saline with Tween-80) was 103 % of control; the T/C (dose: 30.0 mg/kg/injection, schedule: Q01DX005 (ip), vehicle: saline with Tween-80) was 106 % of control.

Regarding `CCC(=O)OCCN(CCOC(=O)CC)C(=O)C(C)OC(=O)CC` (configuration not stated), the T/C is, setting by setting: (dose: 25.0 mg/kg/injection, schedule: Q01DX005 (ip), vehicle: saline) 105 % of control; (dose: 50.0 mg/kg/injection, schedule: Q01DX005 (ip), vehicle: saline) 110 % of control; (dose: 100.0 mg/kg/injection, schedule: Q01DX005 (ip), vehicle: saline) 105 % of control; (dose: 200.0 mg/kg/injection, schedule: Q01DX005 (ip), vehicle: saline) 110 % of control.

`Cc1cccc(Nc2nc(C)nc3[nH]cc(-c4ccccc4)c23)c1`: the T/C by setting is: (dose: 6.25 mg/kg/injection, schedule: Q01DX005 (ip), vehicle: Klucel (hydroxypropylcellulose) (HPC)) 91 % of control; (dose: 12.5 mg/kg/injection, schedule: Q01DX005 (ip), vehicle: Klucel (hydroxypropylcellulose) (HPC)) 90 % of control; (dose: 200.0 mg/kg/injection, schedule: Q01DX005 (ip), vehicle: Klucel (hydroxypropylcellulose) (HPC)) 88 % of control.

In the case of `CN(C)/N=N/c1ccn[nH]1`, the T/C is 121 % of control (dose: 3.12 mg/kg/injection, schedule: Q01DX005 (ip), vehicle: saline with Tween-80); 104 % of control (dose: 3.12 mg/kg/injection, schedule: Q01DX009 (ip), vehicle: saline with Tween-80); 97 % of control (dose: 3.13 mg/kg/injection, schedule: Q01DX009 (ip), vehicle: saline); 121 % of control (dose: 6.25 mg/kg/injection, schedule: Q01DX005 (ip), vehicle: saline with Tween-80); 107 % of control (dose: 6.25 mg/kg/injection, schedule: Q01DX009 (ip), vehicle: saline with Tween-80); 87 % of control (dose: 6.25 mg/kg/injection, schedule: Q01DX009 (ip), vehicle: saline). For the same compound, the T/C (dose: 12.5 mg/kg/injection, schedule: Q01DX005 (ip), vehicle: saline with Tween-80) is 118 % of control; the T/C (dose: 12.5 mg/kg/injection, schedule: Q01DX009 (ip), vehicle: saline) is 92 % of control; the T/C (dose: 25.0 mg/kg/injection, schedule: Q01DX005 (ip), vehicle: saline with Tween-80) is 121 % of control; the T/C (dose: 25.0 mg/kg/injection, schedule: Q01DX009 (ip), vehicle: saline with Tween-80) is 121 % of control; the T/C (dose: 25.0 mg/kg/injection, schedule: Q01DX009 (ip), vehicle: saline) was 113 % of control; the T/C (dose: 50.0 mg/kg/injection, schedule: Q01DX009 (ip), vehicle: saline with Tween-80) is 122 % of control. The T/C under setting [1] is 101 % of control.

For `CC1[C@@]2(CCC(C)(C)O2)O[C@@H]2C=C3C4CCC5Cc6nc7c(nc6C[C@@]5(C)C4C[C@H](O)[C@@]3(C)[C@]12O)CC1CCC2C3=C[C@H]4O[C@@]5(O[C@@](C)(CO)C[C@@H]5O)C(C)[C@@]4(O)[C@]3(C)[C@@H](O)CC2[C@]1(C)C7` (some centres not stated), the T/C was 109 % of control (dose: 12.5 micrograms/kg/injection, schedule: Q01DX009 (ip), vehicle: saline + alcohol); 98 % of control (dose: 25.0 micrograms/kg/injection, schedule: Q01DX009 (ip), vehicle: saline + alcohol); 107 % of control (dose: 50.0 micrograms/kg/injection, schedule: Q01DX009 (ip), vehicle: saline + alcohol); 107 % of control (dose: 100.0 micrograms/kg/injection, schedule: Q01DX009 (ip), vehicle: saline + alcohol).

For `CCCCCCC([Se]C)C(O)(CCC)CCC` (configuration not stated), the T/C (dose: 25.0 mg/kg/injection, schedule: Q04DX003 (ip), vehicle: saline with Tween-80) is 100 % of control; the T/C (dose: 50.0 mg/kg/injection, schedule: Q04DX003 (ip), vehicle: saline with Tween-80) is 100 % of control; the T/C (dose: 100.0 mg/kg/injection, schedule: Q04DX003 (ip), vehicle: saline with Tween-80) was 91 % of control.

On to `CCOC(=O)C(C(=O)C(F)(F)C(F)(F)C(F)(F)C(=O)C(C(=O)OCC)=P(c1ccccc1)(c1ccccc1)c1ccccc1)=P(c1ccccc1)(c1ccccc1)c1ccccc1`, for which the T/C is, setting by setting: (dose: 100.0 mg/kg/injection, schedule: Q01DX001 (ip), vehicle: saline with Tween-80) 108 % of control; (dose: 200.0 mg/kg/injection, schedule: Q01DX001 (ip), vehicle: saline with Tween-80) 99 % of control; (dose: 400.0 mg/kg/injection, schedule: Q01DX001 (ip), vehicle: saline with Tween-80) 108 % of control.

Consider `COC(=O)C1=CO[C@@H](C)[C@@H]2CN3CCc4c([nH]c5cc(OC)ccc45)[C@@H]3C[C@H]12`, for which the T/C reads like this: under setting [2], 96 % of control; under setting [3], 92 % of control.

Regarding `O=C1CCCCC=C1Cl`, the T/C is 96 % of control under setting [1]; 98 % of control (dose: 100.0 mg/kg/injection, schedule: Q01DX009 (ip), vehicle: saline); 108 % of control (dose: 200.0 mg/kg/injection, schedule: Q01DX009 (ip), vehicle: saline).

On to `Cc1ccc(S(=O)(=O)Nc2cc(C)c3c(c2C)CCN=C3)cc1`, for which the T/C by setting is: (dose: 12.5 mg/kg/injection, schedule: Q01DX009 (ip), vehicle: distilled water + Tween-80) 93 % of control; (dose: 25.0 mg/kg/injection, schedule: Q01DX009 (ip), vehicle: distilled water + Tween-80) 91 % of control; (dose: 50.0 mg/kg/injection, schedule: Q01DX009 (ip), vehicle: distilled water + Tween-80) 88 % of control; (dose: 100.0 mg/kg/injection, schedule: Q01DX009 (ip), vehicle: distilled water + Tween-80) 93 % of control; (dose: 200.0 mg/kg/injection, schedule: Q01DX009 (ip), vehicle: distilled water + Tween-80) 91 % of control.

In the case of `CC(C(O)c1ccc2cc(Br)c3ccccc3c2c1)N(C)C` (configuration not stated), the T/C under setting [2] is 100 % of control and the T/C under setting [3] is 91 % of control.
